Measurements published in US20110201622A1, “Solid Forms Comprising A Cyclopropyl Amide Derivative” (priority 2010, published 2011).

Experiments:
[1] = Thermal gravimetric analysis (TGA); type: physicochemical
Method: Solid material obtained according to the Example 5 was analyzed by thermal techniques.

[2] = Dynamic vapor sorption (DVS) analysis; type: physicochemical; details: about ambient temperature, about 0% RH to about 90% RH
Method: Solid material obtained according to Example 5 was analyzed by DVS techniques. Isothermic DVS analysis was performed at about ambient temperature by increasing a sample of Form I of Compound I from about 0% RH to about 90% RH.
DVS analysis is performed on samples prepared according to standard methods using standard equipment, e.g., a DVS instrument commercially available from Surface Measurement Systems, Ltd.™(Alperton, London, UK). Samples maintained at ambient temperature are cycled between about 0% RH and about 90% RH. Percent changes in mass are recorded, which are indicative of moisture sorption and desorption.

- mass loss (TGA) ([1]; upon heating from about 20° C. to about 100° C.): about 0.25%
- further mass loss (TGA) ([1]; upon heating from about 100° C. to about 160° C.): about 0.25%
- hygroscopicity (DVS analysis) [2]: substantially nonhygroscopic
SMILES: C[C@@H]1CN(C2CCC2)CCN1C(=O)[C@H]1C[C@@H]1c1ccc(C(N)=O)cc1 [Form I of Compound I, 4-{(1S, 2S)-2-[((R)-4-cyclobutyl-2-methylpiperazin-1-yl)carbonyl]-cyclopropyl}-benzamide]
